Structures can show the parent of a compound that is named as a salt. Where two headings read alike, the source gives them in different places. Where a SMILES comes first, the peptide text is derived from it. [ ]: non-standard residue; d: D form. The star is where a group is joined. Hexanoyl = CCCCCC(=O)*; Ahx = NCCCCCC(=O)O
Key:
[1] = biological target: T1, SARS-CoV-2 PLpro (nsp3 1564–1878) (Severe acute respiratory syndrome coronavirus 2, UniProt P0DTD1); assay: biochemical; set-up: FRET-quenched peptide (Pro3) cleavage by PLpro, 10 min pre-incubation, slope over 20 min, normalised to no-compound control; details: high concentration screen, read-out: % of control remaining
[2] = biological target: T1, SARS-CoV-2 PLpro (nsp3 1564–1878); assay: biochemical; set-up: FRET-quenched peptide (Pro3) cleavage by PLpro, 10 min pre-incubation, slope over 20 min, normalised to no-compound control; details: low concentration screen, read-out: % of control remaining

`CNCC[C@@H](Oc1ccccc1C)c1ccccc1` [Tomoxetine] gave a remaining activity at 3.75 µM ([1]; Well no.=1182) of 95.7% and a remaining activity at 1.25 µM ([2]; Well no.=1182) of 99.4%.
`CC(C)(C)S(=O)(=O)c1cc2c(Nc3ccc4scnc4c3)ncnc2cc1OCCO` [RIP2 kinase inhibitor 1] gave a remaining activity at 3.75 µM ([1]; Well no.=6932) of 105% and a remaining activity at 1.25 µM ([2]; Well no.=6932) of 102%.
`CN1CCCC(n2nc(Cc3ccc(Cl)cc3)c3ccccc3c2=O)CC1` (stereo not drawn) [Azelastine (hydrochloride)] gave a remaining activity at 3.75 µM ([1]; Well no.=6173) of 105% and a remaining activity at 1.25 µM ([2]; Well no.=6173) of 103%.
`O=C(O)c1ccc(O)c(O)c1` [Protocatechuic acid] gave a remaining activity at 3.75 µM ([1]; Well no.=4047) of 101% and a remaining activity at 1.25 µM ([2]; Well no.=4047) of 99.6%.
Work on `NC(CCP(=O)(O)O)C(=O)O` (racemic) yielded a remaining activity at 3.75 µM ([1]; Well no.=297) of 101% and a remaining activity at 1.25 µM ([2]; Well no.=297) of 102%.
In the case of `CCCCC/C=C\C/C=C\C/C=C\C[C@H]1O[C@H]1CCCC(=O)O` [5,6-Epoxyeicosatrienoic acid], the remaining activity at 3.75 µM ([1]; Well no.=4383) is reported as 103% and the remaining activity at 1.25 µM ([2]; Well no.=4383) is reported as 105%.
For `C[N+](C)(C)CCCCCC[N+](C)(C)C` [Hexamethonium bromide], the remaining activity at 3.75 µM ([1]; Well no.=702) was 100% and the remaining activity at 1.25 µM ([2]; Well no.=702) was 98.3%.
Compound `CN1CCC(CNc2ccc3ncc(-c4cccc(OC(F)(F)F)c4)n3n2)CC1` [SGI-1776 free base] has a remaining activity at 3.75 µM ([1]; Well no.=4818) of 86.2% and a remaining activity at 1.25 µM ([2]; Well no.=4818) of 88.4%.
For `CC(C)(C)NCC(O)c1ccccc1Cl` (stereo not drawn) [Tulobuterol hydrochloride], the remaining activity at 3.75 µM ([1]; Well no.=1291) was 106% and the remaining activity at 1.25 µM ([2]; Well no.=1291) was 105%.
In the case of `CCN1CCC[C@H]1CNC(=O)c1cc(S(N)(=O)=O)ccc1OC` [(S)-(-)-Sulpiride], the remaining activity at 3.75 µM ([1]; Well no.=1636) is reported as 103% and the remaining activity at 1.25 µM ([2]; Well no.=1636) is reported as 98.3%.
Compound `O=C(O)CCC/C=C\C/C=C\C=C\[C@@H](O)C/C=C\CCCCCO` [12(S),20-DIHETE] has a remaining activity at 3.75 µM ([1]; Well no.=4565) of 101% and a remaining activity at 1.25 µM ([2]; Well no.=4565) of 99.6%.
For `N#Cc1cc(CN2CCC(Nc3ncnc4sc(Cl)cc34)CC2)ccc1F` [PRX-08066], the remaining activity at 3.75 µM ([1]; Well no.=4792) was 97.9% and the remaining activity at 1.25 µM ([2]; Well no.=4792) was 101%.
`NC(=O)C(=O)O` [Sodium Oxamate] showed a remaining activity at 3.75 µM ([1]; Well no.=944) of 96.9% and a remaining activity at 1.25 µM ([2]; Well no.=944) of 97.2%.
With `c1ccc2c(c1)[I+]c1ccccc1-2` [Diphenyleneiodonium chloride] the remaining activity at 3.75 µM ([1]; Well no.=591) was 105% and the remaining activity at 1.25 µM ([2]; Well no.=591) was 99.6%.
Work on `O=C(O)CNC(=O)c1cccnc1` [Nicotinuric acid] yielded a remaining activity at 3.75 µM ([1]; Well no.=6537) of 105% and a remaining activity at 1.25 µM ([2]; Well no.=6537) of 109%.
`O=C(O)Cc1c[nH]c2ccc(O)cc12` [5-Hydroxyindolacetic acid] was tested, and the remaining activity at 3.75 µM ([1]; Well no.=758) was 92.8% and the remaining activity at 1.25 µM ([2]; Well no.=758) was 91.7%.
Work on `O=C(O)Cc1ccccc1Nc1c(Cl)cccc1Cl` [Diclofenac Diethylamine] yielded a remaining activity at 3.75 µM ([1]; Well no.=5309) of 98.6% and a remaining activity at 1.25 µM ([2]; Well no.=5309) of 103%.
`CC[C@]12CCCN3CCc4c(n(c5ccccc45)[C@@](O)(C(=O)OC)C1)[C@@H]32` [Vincamine] showed a remaining activity at 3.75 µM ([1]; Well no.=3475) of 102% and a remaining activity at 1.25 µM ([2]; Well no.=3475) of 106%.
For `CN1[C@@H]2CC[C@H]1C[C@@H](OC(=O)C(CO)c1ccccc1)C2` (stereo partly drawn) [Atropine (sulfate monohydrate)], the remaining activity at 3.75 µM ([1]; Well no.=7677) was 94.5% and the remaining activity at 1.25 µM ([2]; Well no.=7677) was 93.8%.
`CN1C[C@H](C(=O)N[C@]2(C)O[C@@]3(O)[C@@H]4CCCN4C(=O)[C@H](Cc4ccccc4)N3C2=O)C[C@@H]2c3cccc4[nH]cc(c34)C[C@H]21` [Dihydroergotamine methanesulfonate] gave a remaining activity at 3.75 µM ([1]; Well no.=543) of 104% and a remaining activity at 1.25 µM ([2]; Well no.=543) of 102%.
For `C=C[C@](C)(O)CC[C@H]1C(=C)CC[C@H]2C(C)(C)CCC[C@]12C` [Manool], the remaining activity at 3.75 µM ([1]; Well no.=3389) was 98.7% and the remaining activity at 1.25 µM ([2]; Well no.=3389) was 95.7%.
`CC(C)(C[C@H]1CN(S(=O)(=O)c2cccc(C(F)(F)F)c2)c2cc(-c3cc(F)cc(OC(F)F)c3)ccc2O1)C(=O)O` [Cintirorgon] showed a remaining activity at 3.75 µM ([1]; Well no.=8171) of 98.6% and a remaining activity at 1.25 µM ([2]; Well no.=8171) of 99.9%.
`CN(C)C(N)=NCCC[C@H](N)C(=O)O` [Asymmetric dimethylarginine] gave a remaining activity at 3.75 µM ([1]; Well no.=7119) of 102% and a remaining activity at 1.25 µM ([2]; Well no.=7119) of 103%.
`CCCCCC(=O)N[C@@H](Cc1ccc(O)cc1)C(=O)N[C@H](C(=O)NCCCCCC(N)=O)[C@@H](C)CC` [Dihexa] (Hexanoyl-Tyr-Ile-[Ahx]-NH2) gave a remaining activity at 3.75 µM ([1]; Well no.=8646) of 98.4% and a remaining activity at 1.25 µM ([2]; Well no.=8646) of 98.6%.
Compound `COc1ccc2cc(CCC(C)=O)ccc2c1` [Nabumetone] has a remaining activity at 3.75 µM ([1]; Well no.=2005) of 101% and a remaining activity at 1.25 µM ([2]; Well no.=2005) of 102%.
Work on `CCCCCCCCOc1ccccc1C(=O)Nc1ccc(C(=O)OCC[N+](C)(CC)CC)cc1` [Otilonium Bromide] yielded a remaining activity at 3.75 µM ([1]; Well no.=4893) of 93.3% and a remaining activity at 1.25 µM ([2]; Well no.=4893) of 92.9%.
`CCCCC/C=C\C/C=C\C/C=C\C=C\[C@H](CCCC(=O)O)OO` [5(S)-HPETE] gave a remaining activity at 3.75 µM ([1]; Well no.=4327) of 103% and a remaining activity at 1.25 µM ([2]; Well no.=4327) of 106%.
`O=C(O[C@H]1C[N+]2(CCCOc3ccccc3)CCC1CC2)C(O)(c1cccs1)c1cccs1` [Aclidinium Bromide] showed a remaining activity at 3.75 µM ([1]; Well no.=5358) of 97.4% and a remaining activity at 1.25 µM ([2]; Well no.=5358) of 100%.
In the case of `C[N+](C)(C)CC#CCN1CCCC1=O` [Oxotremorine methiodide], the remaining activity at 3.75 µM ([1]; Well no.=1138) is reported as 97.9% and the remaining activity at 1.25 µM ([2]; Well no.=1138) is reported as 96.9%.
With `CCCCCCCCc1ccc(CCC(N)(CO)CO)cc1` [2-amino-2-[2-(4-octylphenyl)ethyl]-1,3-propanediol hydrochloride] the remaining activity at 3.75 µM ([1]; Well no.=6045) was 95.1% and the remaining activity at 1.25 µM ([2]; Well no.=6045) was 93.4%.
Compound `OCCN1C[C@H](O)[C@@H](O)[C@H](O)[C@H]1CO` [Miglitol] has a remaining activity at 3.75 µM ([1]; Well no.=8340) of 92.7% and a remaining activity at 1.25 µM ([2]; Well no.=8340) of 92.9%.
`OC[C@H]1OC(O)[C@@H](O)[C@@H](O)[C@@H]1O` (stereo partly drawn) [D-Mannose] gave a remaining activity at 3.75 µM ([1]; Well no.=7407) of 102% and a remaining activity at 1.25 µM ([2]; Well no.=7407) of 103%.
Work on `C=CCN1CCc2cccc3c2[C@H]1Cc1ccc(O)c(O)c1-3` [R(-)-N-Allylnorapomorphine hydrobromide] yielded a remaining activity at 3.75 µM ([1]; Well no.=398) of 97.4% and a remaining activity at 1.25 µM ([2]; Well no.=398) of 98.8%.
Work on `CCOC(=O)O[C@]1(C(=O)OCCl)CC[C@H]2[C@@H]3CCC4=CC(=O)C=C[C@]4(C)[C@H]3[C@@H](O)C[C@@]21C` [Loteprednol Etabonate] yielded a remaining activity at 3.75 µM ([1]; Well no.=4618) of 103%, a remaining activity at 3.75 µM ([1]; Well no.=6459) of 97.6% and a remaining activity at 1.25 µM ([2]; Well no.=4618) of 98%. It also gave a remaining activity at 1.25 µM ([2]; Well no.=6459) of 99.9%.
For `CC1=C2C[C@H]3[C@@H](CC=C4C[C@@H](O)CC[C@@]43C)[C@@H]2CC[C@]12O[C@@H]1C[C@H](C)CN[C@H]1[C@H]2C` [Cyclopamine], the remaining activity at 3.75 µM ([1]; Well no.=3181) was 106% and the remaining activity at 1.25 µM ([2]; Well no.=3181) was 107%.

From paper PMC8286840, “Identifying SARS-CoV-2 antiviral compounds by screening for small molecule inhibitors of Nsp3 papain-like protease” (Biochemical Journal, 2021)
